Target: T1, human EP1 receptor (Homo sapiens, UniProt P34995)
T1 construct: expressed in transfected cells; host or cells: CHO-K1
T1 sequence (P34995 1-402): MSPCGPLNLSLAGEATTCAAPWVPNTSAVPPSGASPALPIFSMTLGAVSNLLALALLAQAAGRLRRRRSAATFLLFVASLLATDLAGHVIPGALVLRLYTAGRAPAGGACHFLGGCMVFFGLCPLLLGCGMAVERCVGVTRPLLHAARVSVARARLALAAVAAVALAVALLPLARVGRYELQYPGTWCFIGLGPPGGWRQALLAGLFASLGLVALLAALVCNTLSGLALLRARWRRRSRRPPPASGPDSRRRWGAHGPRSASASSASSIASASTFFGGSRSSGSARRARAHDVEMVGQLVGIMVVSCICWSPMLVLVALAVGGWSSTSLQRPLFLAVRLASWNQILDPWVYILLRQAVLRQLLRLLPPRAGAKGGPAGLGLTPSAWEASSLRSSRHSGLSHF
Test: human EP1 calcium mobilisation assay
Type: cell-based
Conditions: human EP1, PGE2-induced calcium mobilisation in CHO-K1 cells; free bases or sodium salts; averages of a number of experiments; read-out: functional pKi value (converted)
Protocol: Briefly, the antagonist properties of compounds are assessed by their ability to inhibit the mobilisation of intracellular calcium ([Ca^2+]i) in response to activation of EP1 or EP3 receptors by the natural agonist hormone prostaglandin E2 (PGE2). Increasing concentrations of antagonist reduce the amount of calcium that a given concentration of PGE2 can mobilise. The net effect is to displace the PGE2 concentration-effect curve to higher concentrations of PGE2. The amount of calcium produced is assessed using a calcium-sensitive fluorescent dye such as Fluo-4, AM and a suitable instrument such as a Fluorimetric Imaging Plate Reader (FLIPR). Increasing amounts of [Ca^2+]i produced by receptor activation increase the amount of fluorescence produced by the dye and give rise to an increasing signal. The signal may be detected using the FLIPR instrument and the data generated may be analysed with suitable curve-fitting software.
The human EP1 or EP3 calcium mobilisation assay (hereafter referred to as ‘the calcium assay’) utilises Chinese hamster ovary-K1(CHO-K1) cells into which a stable (pCIN; BioTechniques 20 (1996): 102-110) vector containing either EP1 or EP3 cDNA has previously been transfected. Cells are cultured in suitable flasks containing culture medium such as DMEM:F-12 supplemented with 10% v/v foetal calf serum, 2 mM L-glutamine, 0.25 mg/ml geneticin, 100 μM flurbiprofen and 10 μg/ml puromycin.
For assay, cells are harvested using a proprietary reagent that dislodges cells such as Versene. Cells are re-suspended in a suitable quantity of fresh culture media for introduction into a 384-well plate. Following incubation for 24 hours at 37° C. the culture media is replaced with a medium containing Fluo-4 and the detergent pluronic acid, and a further incubation takes place. Concentrations of compounds are then added to the plate in order to construct concentration-effect curves. This may be performed on the FLIPR in order to assess the agonist properties of the compounds. Concentrations of PGE2 are then added to the plate in order to assess the antagonist properties of the compounds.
The data so generated may be analysed by means of a computerised curve-fitting routine. The concentration of compound that elicits a half-maximal inhibition of the calcium mobilisation induced by PGE2 (pIC50) may then be estimated.

Ki [nM]	Compound
< 1000	CC(C)(C)NC(=O)c1ccc(Cc2cc(Cl)ccc2OCc2ccccc2)o1 [Example 51, 5-({5-Chloro-2-[(phenylmethyl)oxy]phenyl}methyl)-N-(1,1-dimethylethyl)-2-furancarboxamide]
< 1000	CC(C)(C)CNC(=O)c1ccc(Cc2cc(Cl)ccc2OCc2ccccc2)o1 [Example 52, 5-({5-Chloro-2-[(phenylmethyl)oxy]phenyl}methyl)-N-(2,2-dimethylpropyl)-2-furancarboxamide]
≤ 10	O=C(NCc1ccccn1)c1ccc(Cc2cc(Cl)ccc2OCc2ccccc2)o1 [Example 53, 5-({5-Chloro-2-[(phenylmethyl)oxy]phenyl}methyl)-N-(2-pyridinylmethyl)-2-furancarboxamide]
< 1000	CN(C)c1ccc(CNC(=O)c2ccc(Cc3cc(Cl)ccc3OCc3ccccc3)o2)cc1 [Example 54, 5-({5-Chloro-2-[(phenylmethyl)oxy]phenyl}methyl)-N-{[4-(dimethylamino)phenyl]methyl}-2-furancarboxamide]
< 1000	CC(C)COc1ccc(Cl)cc1Cc1ccc(C(=O)NC(C)C)o1 [Example 55, 5-({5-Chloro-2-[(2-methylpropyl)oxy]phenyl}methyl)-N-(1-methylethyl)-2-furancarboxamide]
< 1000	CC(C)COc1ccc(Cl)cc1Cc1ccc(C(=O)NC(C)(C)C)o1 [Example 56, 5-({5-Chloro-2-[(2-methylpropyl)oxy]-phenyl}methyl)-N-(1,1-dimethylethyl)-2-furancarboxamide]
< 1000	CC(C)COc1ccc(Cl)cc1Cc1ccc(C(=O)NCc2ccccn2)o1 [Example 58, 5-({5-Chloro-2-[(2-methylpropyl)oxy]-phenyl}methyl)-N-(2-pyridinylmethyl)-2-furancarboxamide]
< 1000	CC(C)COc1ccc(Cl)cc1Cc1ccc(C(=O)n2cnc3ccccc32)o1 [Example 67, 1-{[5-({5-Chloro-2-[(2-methylpropyl)oxy]-phenyl}methyl)-2-furanyl]carbonyl}-1H-benzimidazole]
< 1000	CC(C)COc1ccc(Cl)cc1Cc1ccc(C(N)=O)o1 [Example 68, 5-({5-Chloro-2-[(2-methylpropyl)oxy]-phenyl}methyl)-2-furancarboxamide]
< 1000	O=C(Nc1ccccc1F)c1ccc(Cc2cc(Cl)ccc2OCc2ccccc2)o1 [Example 69, 5-({5-Chloro-2-[(phenylmethyl)oxy]-phenyl}methyl)-N-(2-fluorophenyl)-2-furancarboxamide]
< 1000	O=C(Nc1ccccc1)c1ccc(Cc2cc(Cl)ccc2OCc2ccccc2)o1 [Example 70, 5-({5-Chloro-2-[(phenylmethyl)oxy]-phenyl}methyl)-N-phenyl-2-furancarboxamide]
< 1000	Cc1cccc(C)c1NC(=O)c1ccc(Cc2cc(Cl)ccc2OCc2ccccc2)o1 [Example 71, 5-({5-Chloro-2-[(phenylmethyl)oxy]-phenyl}methyl)-N-(2,6-dimethylphenyl)-2-furancarboxamide]
< 1000	O=C(Nc1ccccc1Cl)c1ccc(Cc2cc(Cl)ccc2OCc2ccccc2)o1 [Example 72, N-(2-chlorophenyl)-5-({5-chloro-2-[(phenylmethyl)oxy]-phenyl}methyl)-2-furancarboxamide]
< 1000	Cc1ccccc1NC(=O)c1ccc(Cc2cc(Cl)ccc2OCc2ccccc2)o1 [Example 73, 5-({5-Chloro-2-[(phenylmethyl)oxy]-phenyl}methyl)-N-(2-methylphenyl)-2-furancarboxamide]
< 1000	Cc1cccc(Cl)c1NC(=O)c1ccc(Cc2cc(Cl)ccc2OCc2ccccc2)o1 [Example 74, N-(2-Chloro-6-methylphenyl)-5-({5-chloro-2-[(phenylmethyl)oxy]-phenyl}methyl)-2-furancarboxamide]
> 1000	O=C(Nc1ccccc1-c1ccccc1)c1ccc(Cc2cc(Cl)ccc2OCc2ccccc2)o1 [Example 75, N-2-biphenylyl-5-({5-chloro-2-[(phenylmethyl)oxy]-phenyl}methyl)-2-furancarboxamide]
< 1000	O=C(Nc1ccccc1Br)c1ccc(Cc2cc(Cl)ccc2OCc2ccccc2)o1 [Example 76, N-(2-bromophenyl)-5-({5-chloro-2-[(phenylmethyl)oxy]-phenyl}methyl)-2-furancarboxamide]
< 1000	O=C(c1ccc(Cc2cc(Cl)ccc2OCc2ccccc2)o1)n1cnc2ccccc21 [Example 77, 1-{[5-({5-Chloro-2-[(phenylmethyl)oxy]-phenyl}methyl)-2-furanyl]carbonyl}-1H-benzimidazole]
< 1000	NC(=O)c1ccc(Cc2cc(Cl)ccc2OCc2ccccc2)o1 [Example 78, 5-({5-Chloro-2-[(phenylmethyl)oxy]-phenyl}methyl)-2-furancarboxamide]
≤ 10	O=C(Nc1c(F)cccc1F)c1ccc(Cc2cc(Cl)ccc2OCc2ccccc2)o1 [Example 79, 5-({5-Chloro-2-[(phenylmethyl)oxy]-phenyl}methyl)-N-(2,6-difluorophenyl)-2-furancarboxamide]
< 1000	CC(C)COc1ccc(Cl)cc1Cc1ccc(C(=O)Nc2c(F)cccc2F)o1 [Example 80, 5-({5-Chloro-2-[(2-methylpropyl)oxy]-phenyl}methyl)-N-(2,6-difluorophenyl)-2-furancarboxamide]
< 1000	O=C(Nc1c(F)cccc1F)c1ccc(Cc2cc(Cl)ccc2OCc2ccccc2F)o1 [Example 81, 5-[(5-Chloro-2-{[(2-fluorophenyl)methyl]oxy}phenyl)methyl]-N-(2,6-difluorophenyl)-2-furancarboxamide]
< 1000	O=C(Nc1c(F)cccc1F)c1ccc(Cc2cc(Cl)ccc2OCc2ccc(F)cc2)o1 [Example 82, 5-[(5-Chloro-2-{[(4-fluorophenyl)methyl]oxy}-phenyl)methyl]-N-(2,6-difluorophenyl)-2-furancarboxamide]
< 1000	O=C(Nc1c(F)cccc1F)c1ccc(Cc2cc(Cl)ccc2OCc2c(F)cc(F)cc2F)o1 [Example 83, 5-[(5-Chloro-2-{[(2,4,6-trifluorophenyl)methyl]oxy}-phenyl)methyl]-N-(2,6-difluorophenyl)-2-furancarboxamide]
< 1000	O=C(Nc1c(F)cccc1F)c1ccc(Cc2cc(Cl)ccc2OCc2c(F)cccc2F)o1 [Example 85, 5-[(5-Chloro-2-{[(2,6-difluorophenyl)methyl]oxy}-phenyl)methyl]-N-(2,6-difluorophenyl)-2-furancarboxamide]
< 1000	O=C(Nc1c(F)cccc1F)c1ccc(Cc2cc(Cl)ccc2OCc2ccc(F)c(F)c2)o1 [Example 86, 5-[(5-Chloro-2-{[(3,4-difluorophenyl)methyl]oxy}-phenyl)methyl]-N-(2,6-difluorophenyl)-2-furancarboxamide]
< 1000	O=C(Nc1c(F)cccc1F)c1ccc(Cc2cc(Cl)ccc2OCc2cccc(F)c2F)o1 [Example 87, 5-[(5-Chloro-2-{[(2,3-difluorophenyl)methyl]oxy}-phenyl)methyl]-N-(2,6-difluorophenyl)-2-furancarboxamide]
< 1000	O=C(Nc1c(F)cccc1F)c1ccc(Cc2cc(Cl)ccc2OCc2cc(F)c(F)cc2F)o1 [Example 88, 5-[(5-Chloro-2-{[(2,4,5-trifluorophenyl)methyl]oxy}-phenyl)methyl]-N-(2,6-difluorophenyl)-2-furancarboxamide]
